Experimental findings from patent US20050075375A1 (priority 2003, published 2005) are described below.

In the test the test system is monocistronic NK5.1 HCV replicon in Huh7 cells. The test can be described thus: HCV replicon assay, monocistronic replicon cell line. In kind it is cell-based, hepatitis C virus. The following applies: Hepatitis C virus, Huh-7, 72 h; table T3 (compounds 471-640); monocistronic replicon in Huh7 cells, 3 days incubation, HCV RNA/GAPDH RNA by TaqMan RT-PCR; read-out: Mono EC50 Median. The method, boiled down:
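EC50 derives from the HCV RNA/GAPDH RNA ratio by one-step TaqMan RT-PCR, relative to DMSO-only wells. Compounds (six half-log concentrations, 0.6% DMSO) were incubated 3 days at 37 °C with NK5.1 monocistronic replicon Huh7 cells plated a day earlier.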
Background: A replicon is a self-replicating genome or part of one, used to study replication in cells.

Take `FC(F)(F)c1ccc(-c2n[nH]c(-c3c(Cl)cccc3Cl)n2)nc1` [Compound 527, 2-[5-(2,6-Dichloro-phenyl)-1H-[1,2,4]triazol-3-yl]-5-trifluoromethyl-pyridine]: the 50% effective concentration (EC50) (commonly the midpoint of the concentration-response curve) was more than 19 µM.

As for `Fc1cc(Br)ccc1-c1nc(-c2ccc(C(F)(F)F)cn2)n[nH]1` [Compound 528, 2-[5-(4-Bromo-2-fluoro-phenyl)-1H-[1,2,4]triazol-3-yl]-5-trifluoromethyl-pyridine], the EC50 was more than 19 µM.

In the case of `COc1ccc(Br)cc1-c1nc(-c2ccc(C(F)(F)F)cn2)n[nH]1` [Compound 529, 2-[5-(5-Bromo-2-methoxy-phenyl)-1H-[1,2,4]triazol-3-yl]-5-trifluoromethyl-pyridine], the EC50 is more than 19 µM.

With `FC(F)(F)c1cccnc1-c1n[nH]c(-c2cccc3ccccc23)n1` [Compound 530, 2-(5-Naphthalen-1-yl-1H-[1,2,4]triazol-3-yl)-3-trifluoromethyl-pyridine], the EC50 is more than 19 µM.

On to `CC(C)(C)c1ccc(O)c(-c2nc(-c3ncccc3C(F)(F)F)n[nH]2)c1` [Compound 531, 4-tert-Butyl-2-[5-(3-trifluoromethyl-pyridin-2-yl)-2H-[1,2,4]triazol-3-yl]-phenol], for which the EC50 is more than 19 µM.

As for `O=[N+]([O-])c1ccc(O)c(-c2nc(-c3ncccc3C(F)(F)F)n[nH]2)c1` [Compound 532, 4-Nitro-2-[5-(3-trifluoromethyl-pyridin-2-yl)-2H-[1,2,4]triazol-3-yl]-phenol], the EC50 is more than 19 µM.

Consider `Oc1ccc(F)cc1-c1nc(-c2ncccc2C(F)(F)F)n[nH]1` [Compound 533, 4-Fluoro-2-[5-(3-trifluoromethyl-pyridin-2-yl)-2H-[1,2,4]triazol-3-yl]-phenol], for which the concentration for a half-maximal effect (EC50) is more than 19 µM.

Take `COc1ccc(O)c(-c2nc(-c3ncccc3C(F)(F)F)n[nH]2)c1` [Compound 534, 4-Methoxy-2-[5-(3-trifluoromethyl-pyridin-2-yl)-2H-[1,2,4]triazol-3-yl]-phenol]: the EC50 came out at 2.3 µM.

For the compound `Oc1ccc(Cl)cc1-c1nc(-c2ncccc2C(F)(F)F)n[nH]1` [Compound 535, 4-Chloro-2-[5-(3-trifluoromethyl-pyridin-2-yl)-2H-[1,2,4]triazol-3-yl]-phenol], the concentration giving a half-maximal response (EC50) was determined as 4.1 µM.

Take `CCOc1cccc(-c2nc(-c3ncccc3C(F)(F)F)n[nH]2)c1O` [Compound 536, 6-Ethoxy-2-[5-(3-trifluoromethyl-pyridin-2-yl)-2H-[1,2,4]triazol-3-yl]-phenol]: the EC50 is more than 19 µM.

For `Oc1cc(OCc2ccccc2)ccc1-c1nc(-c2ncccc2C(F)(F)F)n[nH]1` [Compound 537, 5-Benzyloxy-2-[5-(3-trifluoromethyl-pyridin-2-yl)-2H-[1,2,4]triazol-3-yl]-phenol], the 50% effective concentration (EC50) is more than 19 µM.

With `Fc1cc(-c2nc(-c3ncccc3C(F)(F)F)n[nH]2)ccc1-c1ccccc1` [Compound 538, 2-[5-(2-Fluoro-biphenyl-4-yl)-1H-[1,2,4]triazol-3-yl]-3-trifluoromethyl-pyridine], the EC50 is more than 19 µM.

For `Oc1ccc(Br)cc1-c1nc(-c2ncccc2C(F)(F)F)n[nH]1` [Compound 539, 4-Bromo-2-[5-(3-trifluoromethyl-pyridin-2-yl)-2H-[1,2,4]triazol-3-yl]-phenol], the EC50 worked out at 0.35 µM.

Regarding `Cc1ccc(O)c(-c2nc(-c3ncccc3C(F)(F)F)n[nH]2)c1` [Compound 540, 4-Methyl-2-[5-(3-trifluoromethyl-pyridin-2-yl)-2H-[1,2,4]triazol-3-yl]-phenol], the EC50 is more than 19 µM.

In the case of `COc1ccc(-c2nc(-c3ncccc3C(F)(F)F)n[nH]2)c(O)c1` [Compound 541, 5-Methoxy-2-[5-(3-trifluoromethyl-pyridin-2-yl)-2H-[1,2,4]triazol-3-yl]-phenol], the EC50 was more than 19 µM.

As to `Oc1ccccc1-c1nc(-c2ncccc2C(F)(F)F)n[nH]1` [Compound 542, 2-[5-(3-trifluoromethyl-pyridin-2-yl)-2H-[1,2,4]triazol-3-yl]-phenol], the concentration giving a half-maximal response (EC50) was more than 19 µM.

Consider `COc1cccc(-c2nc(-c3ncccc3C(F)(F)F)n[nH]2)c1O` [Compound 543, 6-Methoxy-2-[5-(3-trifluoromethyl-pyridin-2-yl)-2H-[1,2,4]triazol-3-yl]-phenol], for which the EC50 is more than 19 µM.

As to `O=[N+]([O-])c1cccc(-c2nc(-c3ncccc3C(F)(F)F)n[nH]2)c1` [Compound 544, 2-[5-(3-Nitro-phenyl)-1H-[1,2,4]triazol-3-yl]-3-trifluoromethyl-pyridine], the EC50 is more than 19 µM.

In the case of `CCN(CC)c1ccc(-c2nc(-c3ncccc3C(F)(F)F)n[nH]2)c(O)c1` [Compound 545, 5-Diethylamino-2-[5-(3-trifluoromethyl-pyridin-2-yl)-2H-[1,2,4]triazol-3-yl]-phenol], the EC50 was more than 19 µM.

On to `Oc1ccc(O)c(-c2nc(-c3ncccc3C(F)(F)F)n[nH]2)c1` [Compound 546, 4-Hydroxy-2-[5-(3-trifluoromethyl-pyridin-2-yl)-2H-[1,2,4]triazol-3-yl]-phenol], for which the concentration for a half-maximal effect (EC50) is more than 19 µM.

Take `COc1cccc(-c2nc(-c3ncccc3C(F)(F)F)n[nH]2)c1` [Compound 547, 2-[5-(3-Methoxy-phenyl)-1H-[1,2,4]triazol-3-yl]-3-trifluoromethyl-pyridine]: the EC50 is more than 19 µM.

Regarding `CC(C)c1ccc(-c2nc(-c3ncccc3C(F)(F)F)n[nH]2)cc1` [Compound 548, 2-[5-(4-Isopropyl-phenyl)-1H-[1,2,4]triazol-3-yl]-3-trifluoromethyl-pyridine], the EC50 is more than 19 µM.

In the case of `Oc1ccc2ccccc2c1-c1nc(-c2ncccc2C(F)(F)F)n[nH]1` [Compound 549, 1-[5-(3-trifluoromethyl-pyridin-2-yl)-2H-[1,2,4]triazol-3-yl]-naphthalen-2-ol], the 50% effective concentration (EC50) was more than 19 µM.

Turning to `FC(F)(F)c1cccnc1-c1n[nH]c(-c2cccc(Br)c2)n1` [Compound 550, 2-[5-(3-Bromo-phenyl)-1H-[1,2,4]triazol-3-yl]-3-trifluoromethyl-pyridine], the EC50 is more than 19 µM.

Consider `FC(F)(F)c1cccnc1-c1n[nH]c(-c2c(Cl)cccc2Cl)n1` [Compound 551, 2-[5-(2,6-Dichloro-phenyl)-1H-[1,2,4]triazol-3-yl]-3-trifluoromethyl-pyridine], for which the concentration giving a half-maximal response (EC50) is more than 19 µM.

On to `Fc1cc(Br)ccc1-c1nc(-c2ncccc2C(F)(F)F)n[nH]1` [Compound 552, 2-[5-(4-Bromo-2-fluoro-phenyl)-1H-[1,2,4]triazol-3-yl]-3-trifluoromethyl-pyridine], for which the EC50 is more than 19 µM.

`COc1ccc(Br)cc1-c1nc(-c2ncccc2C(F)(F)F)n[nH]1` [Compound 553, 2-[5-(5-Bromo-2-methoxy-phenyl)-1H-[1,2,4]triazol-3-yl]-3-trifluoromethyl-pyridine]: the EC50 was more than 19 µM.

Take `COc1ccc(O)c(-c2nc(-c3ncccc3[N+](=O)[O-])n[nH]2)c1` [Compound 554, 4-Methoxy-2-[5-(3-nitro-pyridin-2-yl)-2H-[1,2,4]triazol-3-yl]-phenol]: the EC50 is more than 19 µM.

Regarding `Nc1cccnc1-c1n[nH]c(-c2cc(Br)ccc2O)n1` [Compound 555, 2-[5-(3-amino-pyridin-2-yl)-2H-[1,2,4]triazol-3-yl]-4-bromo-phenol], the 50% effective concentration (EC50) was more than 3.2 µM.

As for `O=[N+]([O-])c1cccnc1-c1n[nH]c(-c2cc(Br)ccc2O)n1` [Compound 556, 4-Bromo-2-[5-(3-nitro-pyridin-2-yl)-2H-[1,2,4]triazol-3-yl]-phenol], the half-maximal effective concentration (EC50) was more than 3.2 µM.

On to `Nc1cccnc1-c1n[nH]c(-c2c(O)ccc3ccccc23)n1` [Compound 557, 1-[5-(3-amino-pyridin-2-yl)-2H-[1,2,4]triazol-3-yl]-naphthalen-2-ol], for which the 50% effective concentration (EC50) was more than 3.2 µM.

On to `O=[N+]([O-])c1cccnc1-c1n[nH]c(-c2c(O)ccc3ccccc23)n1` [Compound 558, 1-[5-(3-Nitro-pyridin-2-yl)-2H-[1,2,4]triazol-3-yl]-naphthalen-2-ol], for which the EC50 was more than 3.2 µM.

Take `CC(C)(C)c1ccc(O)c(-c2nc(-c3ncccn3)n[nH]2)c1` [Compound 559, 4-tert-Butyl-2-(5-pyrimidin-2-yl-2H-[1,2,4]triazol-3-yl)-phenol]: the EC50 is more than 32 µM.

With `O=[N+]([O-])c1ccc(O)c(-c2nc(-c3ncccn3)n[nH]2)c1` [Compound 560, 4-Nitro-2-(5-pyrimidin-2-yl-2H-[1,2,4]triazol-3-yl)-phenol], the EC50 was more than 32 µM.

As for `Oc1ccc(F)cc1-c1nc(-c2ncccn2)n[nH]1` [Compound 561, 4-Fluoro-2-(5-pyrimidin-2-yl-2H-[1,2,4]triazol-3-yl)-phenol], the concentration for a half-maximal effect (EC50) was more than 32 µM.

For the compound `COc1ccc(O)c(-c2nc(-c3ncccn3)n[nH]2)c1` [Compound 562, 4-Methoxy-2-(5-pyrimidin-2-yl-2H-[1,2,4]triazol-3-yl)-phenol], the concentration giving a half-maximal response (EC50) was more than 32 µM.

Regarding `Oc1ccc(Cl)cc1-c1nc(-c2ncccn2)n[nH]1` [Compound 563, 4-Chloro-2-(5-pyrimidin-2-yl-2H-[1,2,4]triazol-3-yl)-phenol], the EC50 is 6.4 µM.

Turning to `CCOc1cccc(-c2nc(-c3ncccn3)n[nH]2)c1O` [Compound 564, 6-Ethoxy-2-(5-pyrimidin-2-yl-2H-[1,2,4]triazol-3-yl)-phenol], the concentration for a half-maximal effect (EC50) is more than 32 µM.

Turning to `Oc1cc(OCc2ccccc2)ccc1-c1nc(-c2ncccn2)n[nH]1` [Compound 565, 5-Benzyloxy-2-(5-pyrimidin-2-yl-2H-[1,2,4]triazol-3-yl)-phenol], the half-maximal effective concentration (EC50) amounted to 26 µM.

With `Oc1ccc(Br)cc1-c1nc(-c2ncccn2)n[nH]1` [Compound 566, 4-Bromo-2-(5-pyrimidin-2-yl-2H-[1,2,4]triazol-3-yl)-phenol], the concentration giving a half-maximal response (EC50) stood at 5.9 µM.

Consider `Cc1ccc(O)c(-c2nc(-c3ncccn3)n[nH]2)c1` [Compound 567, 4-Methyl-2-(5-pyrimidin-2-yl-2H-[1,2,4]triazol-3-yl)-phenol], for which the 50% effective concentration (EC50) is more than 32 µM.
